Test results: US12478603B2, “Serum metabolites as biomarkers for carnitine treatment of sepsis” (priority 2020, dated 2025)
Entries after “also recorded” stand apart in the source; their conditions may differ. Read-outs that look alike come from different tables or passages of the source.

Key:
[1] = test system: patients with septic shock; conditions: cited from earlier work; for absolute mortality reduction at 28 days compared to saline placebo: 18 g dose, non-significant
[2] = test system: patients with septic shock; assay: Pharmacometabolomic analysis of the RACE trial: mortality after L-carnitine stratified by pre-treatment serum acetylcarnitine; assay type: in vivo, human; conditions: for 90-day mortality: high (≥36 μM) pretreatment acetylcarnitine, placebo 100%; for hazard ratio (Mantel-Haenszel) / Kaplan-Meier curve, mortality benefit: 18 g vs placebo
Text: Patient selection: Detailed inclusion and exclusion criteria have been previously reported (see, e.g., Jones (2018) “Effect of Levocarnitine vs Placebo as an Adjunctive Treatment for Septic Shock: The Rapid Administration of Carnitine in Sepsis (RACE) Randomized Clinical Trial” JAMA Netw Open 1: e186076, incorporated herein by reference). Briefly, patients presenting with suspected or confirmed infection and meeting consensus criteria for septic shock including administration of continuous vasopressors despite adequate fluid resuscitation, an elevated lactate>2 mmol/L, and a SOFA score of at least 5 were eligible for inclusion. All patients enrolled in the clinical trial were included in the present analysis with the exception of two patients who withdrew consent following randomization and 12 that lacked a T0 sample (FIG. 6).
Blood sampling. Following consent but prior to initiation of therapy, whole blood was drawn into serum separator tubes (SST; Vacutainer, Becton Dickinson, Franklin Lakes, NJ) and was allowed to clot for at least 30 minutes at room temperature. A portion of whole blood was aliquoted, while the remainder was centrifuged to yield serum. All samples were then frozen at −80° C. within 60 minutes of the initial sample acquisition. This approach has been previously utilized to yield samples appropriate for metabolomics analyses (see, e.g., Puskarich (2015) “Pharmacometabolomics of L-carnitine treatment response phenotypes in patients with septic shock” Ann Am Thorac Soc 12: 46-56, incorporated herein by reference). At the completion of the clinical trial, serum samples were shipped on dry ice to the University of Michigan for assay.
Measurement of Acylcarnitines: Analysis was performed consistent with prior methods (see, e.g., Puskarich (2018) “Septic Shock Nonsurvivors Have Persistently Elevated Acylcarnitines Following Carnitine Supplementation” Shock 49: 412-419, incorporated herein by reference). Briefly, at the time of analysis, serum samples were thawed on ice and extraction solvent was prepared consisting of a 1:1:1 mixture of methanol:acetonitrile:acetone plus a 1:200 dilution of a stock mixture of stable-isotope labeled acylcarnitine standards dissolved according to manufacturer instructions (NSK-B, Cambridge Isotope Laboratories). Acylcarnitine species were then analyzed without derivatization by RPLC-MS/MS using an Agilent 1200 LC coupled to an Agilent 6410 tandem quadrupole (Santa Clara, CA). A pooled sample generated by combining a small volume of all study samples was injected every 10th run and was used for intra-batch and inter-batch drift correction as described below. Absolute quantitation by isotope dilution mass spectrometry was performed for acylcarnitine species with exact-matching stable isotope internal standards (L-carnitine, C2, C3, C4, C5, C8, C14, C16) by multiplying the ratio of the unlabeled peak area/labeled peak area by the known concentration of acylcarnitine in the extraction solvent, then adjusting for dilution of the original serum sample. Other acylcarnitine species were limited to relative quantification by peak area.
By 90 days, 90% of the deaths occurred and the interaction term between L-carnitine treatment and mortality flattened (FIG. 7). Based on this analysis, 90-day mortality was chosen as the primary clinical outcome.
Statistical analysis: For logistic regression modeling, treatment assignment was scaled from 0 (placebo) to 1 (18 g L-carnitine) and age and SOFA score were z-scale normalized. Two main models were developed for each metabolite. The base model was described by log it(p)=B0+BD*Dose+BM*Metabolitei, where p is the probability of mortality in 90 days. The treatment interaction was modeled with: log it(p)=B0+(BD*Dose)+(BM*Metabolitei)+(BMD*Metabolitei)*Dose […]

## C[N+](C)(C)C[C@H](O)CC(=O)[O-] [L-carnitine]
[1]; 6, 12 or 18 g
  reduction in sequential organ failure assessment (SOFA) score at 48 hours: none of the tested L-carnitine doses produced a significant reduction
[1]; intention to treat analysis
  absolute mortality reduction at 28 days compared to saline placebo: 3%
[1]; per protocol analysis
  absolute mortality reduction at 28 days compared to saline placebo: 6%
[2]; as baseline acetylcarnitine concentration increases, dose 0, 6, 12, 18 g
  predicted probability of 90-day mortality (interaction logistic regression model): declines with increasing L-carnitine dose
[2]; L-carnitine 18 g, p=0.002
  90-day mortality: 50%
[2]; L-carnitine any dose, p=0.02
  90-day mortality: 69%
[2]; low baseline acetylcarnitine tertile (normalized [−2.21, −0.508], n=79), placebo, 6, 12, 18 g, Fisher's exact test p=0.81
  proportion of 90-day non-survivors by dose received: not associated with dose received; also recorded: not different between placebo or L-carnitine doses
[2]; patients with acetylcarnitine less than 36 μM
  treatment benefit (90-day mortality): no treatment benefit
[2]; patients with acetylcarnitine ≥26 μM, L-carnitine 18 g, additional analysis (trend)
  treatment / mortality benefit: received a treatment benefit; also recorded: derived a mortality benefit
[2]; scenario 1: no acetylcarnitine threshold
  hazard ratio (Mantel-Haenszel): not significant
[2]; scenario 1: no acetylcarnitine threshold, n=170, p=0.28
  Kaplan-Meier curve, mortality benefit: no mortality benefit
[2]; scenario 2: acetylcarnitine (C2) threshold ≥26 μM
  hazard ratio (Mantel-Haenszel): improved but is not significant
[2]; scenario 2: acetylcarnitine (C2) threshold ≥26 μM, 52 patients, p=0.14
  Kaplan-Meier curve, mortality benefit: no mortality benefit
[2]; scenario 3: acetylcarnitine (C2) threshold ≥30 μM
  hazard ratio (Mantel-Haenszel): significant and favors L-carnitine (18 g)
[2]; scenario 3: acetylcarnitine (C2) threshold ≥30 μM, 42 patients, p=0.01
  Kaplan-Meier curve, mortality benefit: mortality benefit
[2]; scenario 4: acetylcarnitine (C2) threshold ≥36 μM
  hazard ratio (Mantel-Haenszel): significant
[2]; scenario 4: acetylcarnitine (C2) threshold ≥36 μM, 34 patients, p=0.004
  Kaplan-Meier curve, mortality benefit: mortality benefit
